Data on 3 compounds can be found in patent publication US9023789B2, “Amylin analogs and pharmaceutical compositions thereof” (Novo Nordisk A/S, priority 2012, dated 2015).

pIC50: −log10 of the molar value. Values after ≈ are worked out from the molar mass of the structure shown. Like-named read-outs stand apart in the source and are kept apart here. Numbered stars: 1 amine (or outer) side, 2 acyl side, 3 side chain; on linkers, the order of the positions; unused ones are H or OH. Bridge positions count the residues as written; N and C are the ends. Side chains are listed from the residue outwards. Peptide text beside a SMILES is read from it. * marks the point of attachment. C20 diacid = O=C(O)CCCCCCCCCCCCCCCCCCC(=O)*; γGlu = O=C(O)[C@H](CCC(=O)[*:2])N[*:1]

In general, pIC50 refers to the negative decadic logarithm of the IC50, by convention in mol/L.

The nature of data set [1]: ASSAY (IV) determination of solubility. Type of data set: physicochemical. The procedure, abridged:
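Dissolve polypeptide in water ([…] stock); combine 1:1 with each 100 mM buffer (glycylglycine pH 3.0/4.0/5.0; bistrispropane pH 6.0/6.5/7.0/7.5/8.0); hold 18 hours at room temperature; centrifuge; quantify polypeptide by UPLC.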

Data set [2] concerns the target T1, human amylin receptor (membranes from Amylin 3(a)/CRE-luc cells) (Homo sapiens, UniProt O60896+P30988).
T1 construct: expressed in transfected cells
T1 sequence (P30988 25-474): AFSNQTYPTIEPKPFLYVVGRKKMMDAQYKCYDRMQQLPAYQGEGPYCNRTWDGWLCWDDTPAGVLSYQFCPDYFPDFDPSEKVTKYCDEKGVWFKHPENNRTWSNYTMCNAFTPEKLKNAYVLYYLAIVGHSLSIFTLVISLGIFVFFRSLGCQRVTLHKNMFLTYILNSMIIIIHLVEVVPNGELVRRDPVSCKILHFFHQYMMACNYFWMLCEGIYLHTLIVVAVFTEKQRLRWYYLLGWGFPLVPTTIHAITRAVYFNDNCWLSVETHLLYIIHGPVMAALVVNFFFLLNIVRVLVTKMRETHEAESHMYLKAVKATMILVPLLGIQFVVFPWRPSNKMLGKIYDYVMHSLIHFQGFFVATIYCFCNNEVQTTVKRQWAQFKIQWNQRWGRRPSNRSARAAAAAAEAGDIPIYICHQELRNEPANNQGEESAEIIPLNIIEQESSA
T1 sequence (O60896 24-148 partner): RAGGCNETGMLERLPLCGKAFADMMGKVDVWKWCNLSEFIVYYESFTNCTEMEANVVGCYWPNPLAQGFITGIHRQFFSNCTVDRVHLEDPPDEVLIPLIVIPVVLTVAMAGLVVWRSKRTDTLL
Nature of the data set: ASSAY (V) binding to the human amylin receptor (SPA, 125I-rat amylin).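 Also: competition binding of cell membranes (35 ng/µL) mixed with SPA beads in 384-well plates at 40 µL total volume, read by scintillation counting.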

The next data set deals with T2, rat calcitonin receptor (Rattus norvegicus, UniProt P32214).
T2 construct: expressed in transfected cells; host or cells: BHK tk'ts 13 (transient, FuGENE 6), membranes
T2 sequence (P32214 25-479 isoform P32214-2 limits assumed): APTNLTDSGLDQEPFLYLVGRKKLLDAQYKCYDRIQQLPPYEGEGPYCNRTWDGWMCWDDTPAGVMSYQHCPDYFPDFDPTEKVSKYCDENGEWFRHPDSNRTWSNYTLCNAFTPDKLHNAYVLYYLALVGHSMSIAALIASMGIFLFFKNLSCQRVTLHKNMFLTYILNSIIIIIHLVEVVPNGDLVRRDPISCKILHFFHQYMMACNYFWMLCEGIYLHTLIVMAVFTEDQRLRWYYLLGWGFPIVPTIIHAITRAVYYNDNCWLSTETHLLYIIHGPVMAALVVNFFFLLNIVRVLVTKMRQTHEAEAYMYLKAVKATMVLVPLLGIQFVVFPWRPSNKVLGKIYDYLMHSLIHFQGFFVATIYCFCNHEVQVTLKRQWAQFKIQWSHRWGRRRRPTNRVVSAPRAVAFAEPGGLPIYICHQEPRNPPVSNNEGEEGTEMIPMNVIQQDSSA
Nature of the data set: ASSAY (VIII) binding to the rat calcitonin receptor. Particulars: Table 7, read-out: rCTR bind IC50. Put shortly: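 Rat calcitonin receptor is expressed transiently in BHK tk′ts 13 cells cultured in DMEM with 10% FBS. Roughly two days (approximately 48 hours) post-transfection, cells are harvested for membrane preparation.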

The mark [3] stands for this setting: bistrispropane buffer, pH 6.5, read-out: Solubility pH 6.5 Concentration.
The mark [4] stands for this setting: bistrispropane buffer, pH 7.5, read-out: Solubility pH 7.5 Concentration.
The mark [5] stands for this setting: bistrispropane buffer, pH 6.0, read-out: Solubility pH 6.0 Concentration.
Where [6] appears, read: bistrispropane buffer, pH 7.0, read-out: Solubility pH 7.0 Concentration.
Where [7] appears, read: bistrispropane buffer, pH 8.0, read-out: Solubility pH 8.0 Concentration.
The mark [8] stands for this setting: glycylglycine buffer, pH 3.0, read-out: Solubility pH 3.0 Concentration.
Setting [9] is: glycylglycine buffer, pH 4.0, read-out: Solubility pH 4.0 Concentration.
Setting [10] is: glycylglycine buffer, pH 5.0, read-out: Solubility pH 5.0 Concentration.
The mark [11] stands for this setting: Table 5, selectivity, hCTR bind IC50 / hAmylin-R bind IC50.
The mark [12] stands for this setting: Table 5a, selectivity, hCTR bind IC50 / hAmylin-R bind IC50.
Setting [13] is: Table 7, human binding selectivity, included for comparison.
Where [14] appears, read: Table 7a (preferred compounds), human binding selectivity, included for comparison.
The mark [15] stands for this setting: ratio of human calcitonin receptor binding IC50 to human amylin receptor binding IC50.

Consider `CC[C@H](C)[C@H](NC(=O)[C@H](C)NC(=O)CNC(=O)[C@H](Cc1ccccc1)NC(=O)[C@H](CC(N)=O)NC(=O)[C@@H]1CCCN1C(=O)[C@H](CO)NC(=O)[C@H](CO)NC(=O)[C@H](Cc1c[nH]cn1)NC(=O)[C@H](CCCNC(=N)N)NC(=O)[C@H](CC(C)C)NC(=O)[C@H](Cc1ccccc1)NC(=O)[C@H](CCC(=O)O)NC(=O)[C@H](C)NC(=O)[C@H](CC(C)C)NC(=O)[C@H](CCCNC(=N)N)NC(=O)[C@H](CCC(N)=O)NC(=O)[C@@H](NC(=O)[C@H](C)NC(=O)[C@@H]1CSSC[C@H](NC(=O)[C@H](CCCCN)NC(=O)CC[C@H](NC(=O)CCCCCCCCCCCCCCCCCCC(=O)O)C(=O)O)C(=O)N[C@@H](CC(N)=O)C(=O)N[C@@H]([C@@H](C)O)C(=O)N[C@@H](C)C(=O)N[C@@H]([C@@H](C)O)C(=O)N1)[C@@H](C)O)C(=O)N1CCC[C@H]1C(=O)N[C@@H](CO)C(=O)N[C@@H](CO)C(=O)N[C@H](C(=O)N[C@@H](CC(N)=O)C(=O)N[C@H](C(=O)NCC(=O)N[C@@H](CO)C(=O)N[C@@H](CCC(=O)O)C(=O)N[C@H](C(=O)N[C@@H](Cc1ccc(O)cc1)C(N)=O)[C@@H](C)O)C(C)C)[C@@H](C)O` [Example 22] ({C20 diacid-γGlu}-KCNTATCATQRLAEFLRHSSPNFGAIPSSTNVGSETY-NH2; disulfide 2-7), for which the solubility at 18 h in data set [1] (setting [3]) was no less than 200 µM; in data set [1] (setting [4]), no less than 200 µM; in data set [1] (setting [5]), 195 µM (≈ 860 µg/mL); in data set [1] (setting [6]), no less than 200 µM; in data set [1] (setting [7]) it was no less than 200 µM; in data set [1] (setting [8]) it was no less than 200 µM. Further, the solubility at 18 h in data set [1] (setting [9]) and in data set [1] (setting [10]) was no less than 200 µM throughout. Further, the “Ratio hCT/hAmylin binding” value in data set [2] (setting [11]), in data set [2] (setting [12]), in data set [2] (setting [13]), in data set [2] (setting [14]) and in data set [2] (setting [15]) was 12.3 throughout. Further, the pIC50 at rat calcitonin receptor is 7.20.

`CC[C@H](C)[C@H](NC(=O)[C@H](C)NC(=O)CNC(=O)[C@H](Cc1ccccc1)NC(=O)[C@H](CC(N)=O)NC(=O)[C@@H]1CCCN1C(=O)[C@H](CO)NC(=O)[C@H](CO)NC(=O)[C@H](Cc1c[nH]cn1)NC(=O)[C@H](CCCNC(=N)N)NC(=O)[C@H](CC(C)C)NC(=O)[C@H](Cc1ccccc1)NC(=O)[C@H](CCC(=O)O)NC(=O)[C@H](C)NC(=O)[C@H](CC(C)C)NC(=O)[C@H](CCCNC(=N)N)NC(=O)[C@H](CCC(N)=O)NC(=O)[C@@H](NC(=O)[C@H](C)NC(=O)[C@@H]1CSSC[C@H](NC(=O)[C@@H](N)CCCCNC(=O)CC[C@H](NC(=O)CC[C@H](NC(=O)CCCCCCCCCCCCCCCCCCC(=O)O)C(=O)O)C(=O)O)C(=O)N[C@@H](CC(N)=O)C(=O)N[C@@H]([C@@H](C)O)C(=O)N[C@@H](C)C(=O)N[C@@H]([C@@H](C)O)C(=O)N1)[C@@H](C)O)C(=O)N1CCC[C@H]1C(=O)N[C@@H](CO)C(=O)N[C@@H](CO)C(=O)N[C@H](C(=O)N[C@@H](CC(N)=O)C(=O)N[C@H](C(=O)NCC(=O)N1CCC[C@H]1C(=O)N[C@@H](CCC(=O)O)C(=O)N[C@H](C(=O)N1CCC[C@H]1C(N)=O)[C@@H](C)O)C(C)C)[C@@H](C)O` [Example 125] (H-K([γGlu-γGlu-C20 diacid])CNTATCATQRLAEFLRHSSPNFGAIPSSTNVGPETP-NH2; disulfide 2-7 (inferred); N-terminus assumed): the solubility at 18 h in data set [1] (setting [3]), in data set [1] (setting [4]), in data set [1] (setting [5]), in data set [1] (setting [6]), in data set [1] (setting [7]) and in data set [1] (setting [8]) was no less than 200 µM throughout. Besides, the solubility at 18 h in data set [1] (setting [9]) and in data set [1] (setting [10]) was no less than 200 µM each time. Further, the “Ratio hCT/hAmylin binding” value in data set [2] (setting [11]), in data set [2] (setting [13]) and in data set [2] (setting [14]) was 0.4 in each case. Further, the negative-log IC50 (pIC50) on rat calcitonin receptor is 8.79.

On to `CC[C@H](C)[C@H](NC(=O)[C@H](C)NC(=O)CNC(=O)[C@H](Cc1ccccc1)NC(=O)[C@H](CC(N)=O)NC(=O)[C@@H]1CCCN1C(=O)[C@H](CO)NC(=O)[C@H](CO)NC(=O)[C@H](Cc1c[nH]cn1)NC(=O)[C@H](CCCNC(=N)N)NC(=O)[C@H](CC(C)C)NC(=O)[C@H](Cc1ccccc1)NC(=O)[C@H](CC(N)=O)NC(=O)[C@H](C)NC(=O)[C@H](CC(C)C)NC(=O)[C@H](CCCNC(=N)N)NC(=O)[C@H](CCC(N)=O)NC(=O)[C@@H](NC(=O)[C@H](C)NC(=O)[C@@H]1CSSC[C@H](NC(=O)[C@@H](N)CCCCNC(=O)CC[C@H](NC(=O)CCCCCCCCCCCCCCCCCCC(=O)O)C(=O)O)C(=O)N[C@@H](CC(N)=O)C(=O)N[C@@H]([C@@H](C)O)C(=O)N[C@@H](C)C(=O)N[C@@H]([C@@H](C)O)C(=O)N1)[C@@H](C)O)C(=O)N1CCC[C@H]1C(=O)N[C@@H](CO)C(=O)N[C@@H](CO)C(=O)N[C@H](C(=O)N[C@@H](CC(N)=O)C(=O)N[C@H](C(=O)NCC(=O)N[C@@H](CO)C(=O)N[C@@H](CCC(=O)O)C(=O)N[C@H](C(=O)N[C@@H](Cc1ccc(O)cc1)C(N)=O)[C@@H](C)O)C(C)C)[C@@H](C)O` [Example 27], for which the solubility at 18 h in data set [1] (setting [3]), in data set [1] (setting [4]), in data set [1] (setting [5]), in data set [1] (setting [6]), in data set [1] (setting [7]) and in data set [1] (setting [8]) was no less than 200 µM throughout. Besides, the solubility at 18 h in data set [1] (setting [9]) and in data set [1] (setting [10]) was no less than 200 µM in each case. In addition, the “Ratio hCT/hAmylin binding” value turned out to be 41.3 in data set [2] (setting [11]); 41.3 in data set [2] (setting [12]); 41.3 in data set [2] (Table 5b, selectivity, hCTR bind IC50 / hAmylin-R bind IC50); 41.3 in data set [2] (Table 5c, selectivity, hCTR bind IC50 / hAmylin-R bind IC50); 41.3 in data set [2] (setting [13]); 41.3 in data set [2] (setting [14]). Moreover, in data set [2] (setting [15]), the “Ratio hCT/hAmylin binding” value came to 41.3. In addition, on rat calcitonin receptor, the pIC50 was 7.04.
